Results taken from patent publication US20180371044A1, “PEPTIDOMIMETIC MACROCYCLES” (Aileron Therapeutics, Inc., priority 2015, published 2018).
Where a SMILES comes first, the peptide text is derived from it. Bridges are numbered along the chain shown (N, C = ends). [ ]: non-standard residue; d: D form. NMeY = CN[C@@H](Cc1ccc(O)cc1)C(=O)O; R8 = C=CCCCCCC[C@@](C)(N)C(=O)O; S5 = C=CCCC[C@](C)(N)C(=O)O; Nle = CCCC[C@H](N)C(=O)O

Biological target: T1, human GHRH receptor (hGHRHR) (Homo sapiens, UniProt Q02643)
T1 construct: expressed in transfected cells; host or cells: Human 293 cells
T1 sequence (Q02643 23-423): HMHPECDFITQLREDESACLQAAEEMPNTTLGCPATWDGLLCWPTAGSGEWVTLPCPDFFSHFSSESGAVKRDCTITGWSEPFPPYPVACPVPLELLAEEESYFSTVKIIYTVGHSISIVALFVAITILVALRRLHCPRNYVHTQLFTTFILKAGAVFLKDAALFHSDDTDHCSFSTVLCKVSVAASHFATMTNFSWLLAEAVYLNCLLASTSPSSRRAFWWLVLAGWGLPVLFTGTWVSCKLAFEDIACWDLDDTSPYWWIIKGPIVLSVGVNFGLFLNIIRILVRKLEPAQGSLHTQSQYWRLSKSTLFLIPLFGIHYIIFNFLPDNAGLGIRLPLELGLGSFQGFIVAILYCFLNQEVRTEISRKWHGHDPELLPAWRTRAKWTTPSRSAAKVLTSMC
Experiment: GHRHR agonism measured by cAMP (HTRF) in human 293 cells expressing hGHRHR;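 also: receptor expressed transiently or stably, cells stimulated in serum-free medium, EC50 from a non-linear dose-response fit, maximal response defined by reference GHRH stimulation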
Format: cell-based
Details: 30 min at RT

Structure (SMILES) | EC50 [nM]
CCCC[C@H](NC(=O)[C@@H](NC(=O)[C@H](CC(=O)O)NC(=O)[C@H](CCC(N)=O)NC(=O)[C@H](CC(C)C)NC(=O)[C@H](CC(C)C)NC(=O)[C@H](CCCCN)NC(=O)[C@H](CCCNC(=N)N)NC(=O)[C@]1(C)CCCC=CCCCCCC[C@@](C)(NC(=O)[C@H](CCCNC(=N)N)NC(=O)[C@H](Cc2ccc(O)cc2)NC(=O)[C@H](CO)NC(=O)[C@H](CC(N)=O)NC(=O)[C@@H](NC(=O)[C@H](Cc2ccccc2)NC(=O)[C@@H](NC(=O)[C@H](C)NC(=O)[C@H](CC(=O)O)NC(=O)[C@@H](C)NC(=O)[C@@H](N)Cc2ccc(O)cc2)[C@@H](C)CC)[C@@H](C)O)C(=O)N[C@@H](C(C)C)C(=O)N[C@@H](CC(C)C)C(=O)NCC(=O)N[C@@H](CCC(N)=O)C(=O)N[C@@H](CC(C)C)C(=O)N[C@@H](CO)C(=O)N1)[C@@H](C)CC)C(=O)N[C@@H](CO)C(=O)N[C@@H](CCCNC(=N)N)C(N)=O [SP-4] (H-Y[dA]DAIFTNSYR[R8]VLGQLS[S5]RKLLQDI[Nle]SR-NH2; staple 12-19) | 10 to 25
CCCC[C@H](NC(=O)[C@@H](NC(=O)[C@H](CC(=O)O)NC(=O)[C@H](CCC(N)=O)NC(=O)[C@H](CC(C)C)NC(=O)[C@H](C)NC(=O)[C@H](CCCCN)NC(=O)[C@H](CCCNC(=N)N)NC(=O)[C@H](C)NC(=O)[C@H](CO)NC(=O)[C@H](CC(C)C)NC(=O)[C@H](CCC(N)=O)NC(=O)[C@H](C)NC(=O)[C@H](CC(C)C)NC(=O)[C@]1(C)CCCC=CCCC[C@](C)(NC(=O)[C@H](C)NC(=O)[C@@H](NC(=O)[C@H](Cc2ccccc2)NC(=O)[C@@H](NC(=O)[C@H](C)NC(=O)[C@H](CC(=O)O)NC(=O)[C@H](C)NC(=O)[C@H](Cc2ccc(O)cc2)NC)[C@@H](C)CC)[C@@H](C)O)C(=O)N[C@@H](Cc2ccc(O)cc2)C(=O)N[C@@H](CCCNC(=N)N)C(=O)N[C@@H](CCCCN)C(=O)N1)[C@@H](C)CC)C(=O)N[C@@H](CO)C(=O)N[C@@H](CCCNC(=N)N)C(N)=O [SP-10] (H-[NMeY]ADAIFTA[S5]YRK[S5]LAQLSARKALQDI[Nle]SR-NH2; staple 9-13) | 1 to 10
CCCC[C@H](NC(=O)[C@@H](NC(=O)[C@H](CC(=O)O)NC(=O)[C@H](CCC(N)=O)NC(=O)[C@H](CC(C)C)NC(=O)[C@H](C)NC(=O)[C@H](CCCCN)NC(=O)[C@H](CCCNC(=N)N)NC(=O)[C@H](C)NC(=O)[C@H](CO)NC(=O)[C@H](CC(C)C)NC(=O)[C@]1(C)CCCC=CCCC[C@](C)(NC(=O)[C@H](CCCNC(=N)N)NC(=O)[C@H](Cc2ccc(O)cc2)NC(=O)[C@H](CO)NC(=O)[C@H](C)NC(=O)[C@@H](NC(=O)[C@H](Cc2ccccc2)NC(=O)[C@@H](NC(=O)[C@H](C)NC(=O)[C@H](CC(=O)O)NC(=O)[C@H](C)NC(=O)[C@H](Cc2ccc(O)cc2)NC)[C@@H](C)CC)[C@@H](C)O)C(=O)N[C@@H](C(C)C)C(=O)N[C@@H](CC(C)C)C(=O)N[C@@H](C)C(=O)N1)[C@@H](C)CC)C(=O)N[C@@H](CO)C(=O)N[C@@H](CCCNC(=N)N)C(N)=O [SP-11] (H-[NMeY]ADAIFTASYR[S5]VLA[S5]LSARKALQDI[Nle]SR-NH2; staple 12-16) | 10 to 25
CCCC[C@H](NC(=O)[C@@H](NC(=O)[C@H](CC(=O)O)NC(=O)[C@H](CCC(N)=O)NC(=O)[C@H](CC(C)C)NC(=O)[C@H](C)NC(=O)[C@H](CCCCN)NC(=O)[C@H](CCCNC(=N)N)NC(=O)[C@H](C)NC(=O)[C@]1(C)CCCC=CCCC[C@](C)(NC(=O)[C@@H](NC(=O)[C@H](CCCCN)NC(=O)[C@H](CCCNC(=N)N)NC(=O)[C@H](Cc2ccc(O)cc2)NC(=O)[C@H](CO)NC(=O)[C@H](C)NC(=O)[C@@H](NC(=O)[C@H](Cc2ccccc2)NC(=O)[C@@H](NC(=O)[C@H](C)NC(=O)[C@H](CC(=O)O)NC(=O)[C@H](C)NC(=O)[C@H](Cc2ccc(O)cc2)NC)[C@@H](C)CC)[C@@H](C)O)C(C)C)C(=O)N[C@@H](C)C(=O)N[C@@H](CCC(N)=O)C(=O)N[C@@H](CC(C)C)C(=O)N1)[C@@H](C)CC)C(=O)N[C@@H](CO)C(=O)N[C@@H](CCCNC(=N)N)C(N)=O [SP-13] (H-[NMeY]ADAIFTASYRKV[S5]AQL[S5]ARKALQDI[Nle]SR-NH2; staple 14-18) | 10 to 25
CCCC[C@H](NC(=O)[C@@H](NC(=O)[C@H](CC(=O)O)NC(=O)[C@H](CCC(N)=O)NC(=O)[C@H](CC(C)C)NC(=O)[C@H](C)NC(=O)[C@H](CCCCN)NC(=O)[C@H](CCCNC(=N)N)NC(=O)[C@]1(C)CCCC=CCCC[C@](C)(NC(=O)[C@H](CC(C)C)NC(=O)[C@@H](NC(=O)[C@H](CCCCN)NC(=O)[C@H](CCCNC(=N)N)NC(=O)[C@H](Cc2ccc(O)cc2)NC(=O)[C@H](CO)NC(=O)[C@H](C)NC(=O)[C@@H](NC(=O)[C@H](Cc2ccccc2)NC(=O)[C@@H](NC(=O)[C@H](C)NC(=O)[C@H](CC(=O)O)NC(=O)[C@H](C)NC(=O)[C@H](Cc2ccc(O)cc2)NC)[C@@H](C)CC)[C@@H](C)O)C(C)C)C(=O)N[C@@H](CCC(N)=O)C(=O)N[C@@H](CC(C)C)C(=O)N[C@@H](CO)C(=O)N1)[C@@H](C)CC)C(=O)N[C@@H](CO)C(=O)N[C@@H](CCCNC(=N)N)C(N)=O [SP-14] (H-[NMeY]ADAIFTASYRKVL[S5]QLS[S5]RKALQDI[Nle]SR-NH2; staple 15-19) | 1 to 10
CCCC[C@H](NC(=O)[C@@H](NC(=O)[C@H](CC(=O)O)NC(=O)[C@H](CCC(N)=O)NC(=O)[C@H](CC(C)C)NC(=O)[C@]1(C)CCCC=CCCC[C@](C)(NC(=O)[C@H](CC(C)C)NC(=O)[C@H](CCC(N)=O)NC(=O)[C@H](C)NC(=O)[C@H](CC(C)C)NC(=O)[C@@H](NC(=O)[C@H](CCCCN)NC(=O)[C@H](CCCNC(=N)N)NC(=O)[C@H](Cc2ccc(O)cc2)NC(=O)[C@H](CO)NC(=O)[C@H](C)NC(=O)[C@@H](NC(=O)[C@H](Cc2ccccc2)NC(=O)[C@@H](NC(=O)[C@H](C)NC(=O)[C@H](CC(=O)O)NC(=O)[C@H](C)NC(=O)[C@H](Cc2ccc(O)cc2)NC)[C@@H](C)CC)[C@@H](C)O)C(C)C)C(=O)N[C@@H](C)C(=O)N[C@@H](CCCNC(=N)N)C(=O)N[C@@H](CCCCN)C(=O)N1)[C@@H](C)CC)C(=O)N[C@@H](CO)C(=O)N[C@@H](CCCNC(=N)N)C(N)=O [SP-16] (H-[NMeY]ADAIFTASYRKVLAQL[S5]ARK[S5]LQDI[Nle]SR-NH2; staple 18-22) | 1 to 10

Next, values leading:

EC50 [nM] | Structure (SMILES)
1 to 10 | CCCC[C@H](NC(=O)[C@@H](NC(=O)[C@H](CC(=O)O)NC(=O)[C@H](CCC(N)=O)NC(=O)[C@H](CC(C)C)NC(=O)[C@H](CC(C)C)NC(=O)[C@H](CCCCN)NC(=O)[C@H](CCCNC(=N)N)NC(=O)[C@H](C)NC(=O)[C@H](CO)NC(=O)[C@H](CC(C)C)NC(=O)[C@H](CCC(N)=O)NC(=O)[C@H](C)NC(=O)[C@H](CC(C)C)NC(=O)[C@@H](NC(=O)[C@H](CCCCN)NC(=O)[C@H](CCCNC(=N)N)NC(=O)[C@H](Cc1ccc(O)cc1)NC(=O)[C@H](CO)NC(=O)[C@H](CC(N)=O)NC(=O)[C@@H](NC(=O)[C@H](Cc1ccccc1)NC(=O)[C@@H](NC(=O)[C@H](C)NC(=O)[C@H](CC(=O)O)NC(=O)[C@H](C)NC(=O)[C@@H](N)Cc1ccc(O)cc1)[C@@H](C)CC)[C@@H](C)O)C(C)C)[C@@H](C)CC)C(=O)N[C@@H](CO)C(=O)N[C@@H](CCCNC(=N)N)C(N)=O [SP-5] (H-YADAIFTNSYRKVLAQLSARKLLQDI[Nle]SR-NH2)
1 to 10 | CCCC[C@H](NC(=O)[C@@H](NC(=O)[C@H](CC(=O)O)NC(=O)[C@H](CCC(N)=O)NC(=O)[C@H](CC(C)C)NC(=O)[C@H](C)NC(=O)[C@H](CCCCN)NC(=O)[C@H](CCCNC(=N)N)NC(=O)[C@H](C)NC(=O)[C@H](CO)NC(=O)[C@H](CC(C)C)NC(=O)[C@H](CCC(N)=O)NC(=O)[C@H](C)NC(=O)[C@H](CC(C)C)NC(=O)[C@@H](NC(=O)[C@]1(C)CCCC=CCCC[C@](C)(NC(=O)[C@@H](NC(=O)[C@H](Cc2ccccc2)NC(=O)[C@@H](NC(=O)[C@H](C)NC(=O)[C@H](CC(=O)O)NC(=O)[C@H](C)NC(=O)[C@H](Cc2ccc(O)cc2)NC)[C@@H](C)CC)[C@@H](C)O)C(=O)N[C@@H](CO)C(=O)N[C@@H](Cc2ccc(O)cc2)C(=O)N[C@@H](CCCNC(=N)N)C(=O)N1)C(C)C)[C@@H](C)CC)C(=O)N[C@@H](CO)C(=O)N[C@@H](CCCNC(=N)N)C(N)=O [SP-9] (H-[NMeY]ADAIFT[S5]SYR[S5]VLAQLSARKALQDI[Nle]SR-NH2; staple 8-12)
≤ 1 | CCCC[C@H](NC(=O)[C@@H](NC(=O)[C@H](CC(=O)O)NC(=O)[C@H](CCC(N)=O)NC(=O)[C@H](CC(C)C)NC(=O)[C@H](C)NC(=O)[C@]1(C)CCCC=CCCC[C@](C)(NC(=O)[C@H](CCC(N)=O)NC(=O)[C@H](C)NC(=O)[C@H](CC(C)C)NC(=O)[C@@H](NC(=O)[C@H](CCCCN)NC(=O)[C@H](CCCNC(=N)N)NC(=O)[C@H](Cc2ccc(O)cc2)NC(=O)[C@H](CO)NC(=O)[C@H](C)NC(=O)[C@@H](NC(=O)[C@H](Cc2ccccc2)NC(=O)[C@@H](NC(=O)[C@H](C)NC(=O)[C@H](CC(=O)O)NC(=O)[C@H](C)NC(=O)[C@H](Cc2ccc(O)cc2)NC)[C@@H](C)CC)[C@@H](C)O)C(C)C)C(=O)N[C@@H](CO)C(=O)N[C@@H](C)C(=O)N[C@@H](CCCNC(=N)N)C(=O)N1)[C@@H](C)CC)C(=O)N[C@@H](CO)C(=O)N[C@@H](CCCNC(=N)N)C(N)=O [SP-15] (H-[NMeY]ADAIFTASYRKVLAQ[S5]SAR[S5]ALQDI[Nle]SR-NH2; staple 17-21)
